Laboratory results as given in patent US20220306626A1, “CRYSTALLINE FORM OF A DIHYDROCHLORIDE SALT OF A JAK INHIBITOR COMPOUND” (Theravance Biopharma R&D IP, LLC, priority 2021, published 2022).
Read-outs that look alike come from different tables or passages of the source. Values belong to the compound of their own block, whether it stands above or below them.

Columns and labels:
JAK1 = JAK1 (Homo sapiens, UniProt P23458); conditions: cited from earlier work
TYK2 = TYK2 (Homo sapiens, UniProt P29597); conditions: cited from earlier work
Chain of TYK2 (P29597 whole entry): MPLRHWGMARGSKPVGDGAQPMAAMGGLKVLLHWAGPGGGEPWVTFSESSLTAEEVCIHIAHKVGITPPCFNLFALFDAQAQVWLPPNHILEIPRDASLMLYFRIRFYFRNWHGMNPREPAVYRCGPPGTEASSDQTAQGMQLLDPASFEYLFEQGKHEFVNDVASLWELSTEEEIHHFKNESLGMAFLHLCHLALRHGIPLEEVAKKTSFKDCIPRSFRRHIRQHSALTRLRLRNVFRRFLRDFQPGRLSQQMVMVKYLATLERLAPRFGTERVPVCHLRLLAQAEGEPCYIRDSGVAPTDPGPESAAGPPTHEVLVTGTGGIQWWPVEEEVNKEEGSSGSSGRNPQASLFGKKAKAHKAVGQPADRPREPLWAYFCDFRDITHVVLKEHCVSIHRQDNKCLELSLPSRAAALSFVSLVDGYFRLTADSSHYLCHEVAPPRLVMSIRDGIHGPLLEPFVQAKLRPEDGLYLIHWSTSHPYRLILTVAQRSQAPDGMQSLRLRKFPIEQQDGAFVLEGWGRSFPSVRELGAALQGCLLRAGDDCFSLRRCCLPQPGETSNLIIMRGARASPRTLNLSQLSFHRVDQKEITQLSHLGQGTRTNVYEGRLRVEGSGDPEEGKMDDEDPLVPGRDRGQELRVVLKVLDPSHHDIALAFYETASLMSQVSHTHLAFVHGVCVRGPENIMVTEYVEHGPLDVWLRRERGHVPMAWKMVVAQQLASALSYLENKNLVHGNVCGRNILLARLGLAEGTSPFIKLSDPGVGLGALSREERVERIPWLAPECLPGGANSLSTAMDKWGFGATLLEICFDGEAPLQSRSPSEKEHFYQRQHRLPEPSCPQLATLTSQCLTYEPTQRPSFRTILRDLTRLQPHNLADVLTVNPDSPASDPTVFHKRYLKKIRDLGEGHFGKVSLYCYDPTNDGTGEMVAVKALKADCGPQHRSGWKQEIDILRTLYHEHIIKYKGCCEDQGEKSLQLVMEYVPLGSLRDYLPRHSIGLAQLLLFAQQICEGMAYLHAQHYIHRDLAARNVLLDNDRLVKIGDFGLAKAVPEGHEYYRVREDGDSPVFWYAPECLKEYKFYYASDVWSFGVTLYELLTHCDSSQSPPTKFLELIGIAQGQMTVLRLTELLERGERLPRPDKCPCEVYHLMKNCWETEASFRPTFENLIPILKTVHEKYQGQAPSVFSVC

[1] = in vivo; cited from earlier work
[2] = test system: pro-inflammatory and pro-fibrotic cytokines; conditions: cited from earlier work
JAK3 = target: T1, JAK3 (Homo sapiens, UniProt P52333); conditions: cited from earlier work
T1 sequence (P52333 1-1124): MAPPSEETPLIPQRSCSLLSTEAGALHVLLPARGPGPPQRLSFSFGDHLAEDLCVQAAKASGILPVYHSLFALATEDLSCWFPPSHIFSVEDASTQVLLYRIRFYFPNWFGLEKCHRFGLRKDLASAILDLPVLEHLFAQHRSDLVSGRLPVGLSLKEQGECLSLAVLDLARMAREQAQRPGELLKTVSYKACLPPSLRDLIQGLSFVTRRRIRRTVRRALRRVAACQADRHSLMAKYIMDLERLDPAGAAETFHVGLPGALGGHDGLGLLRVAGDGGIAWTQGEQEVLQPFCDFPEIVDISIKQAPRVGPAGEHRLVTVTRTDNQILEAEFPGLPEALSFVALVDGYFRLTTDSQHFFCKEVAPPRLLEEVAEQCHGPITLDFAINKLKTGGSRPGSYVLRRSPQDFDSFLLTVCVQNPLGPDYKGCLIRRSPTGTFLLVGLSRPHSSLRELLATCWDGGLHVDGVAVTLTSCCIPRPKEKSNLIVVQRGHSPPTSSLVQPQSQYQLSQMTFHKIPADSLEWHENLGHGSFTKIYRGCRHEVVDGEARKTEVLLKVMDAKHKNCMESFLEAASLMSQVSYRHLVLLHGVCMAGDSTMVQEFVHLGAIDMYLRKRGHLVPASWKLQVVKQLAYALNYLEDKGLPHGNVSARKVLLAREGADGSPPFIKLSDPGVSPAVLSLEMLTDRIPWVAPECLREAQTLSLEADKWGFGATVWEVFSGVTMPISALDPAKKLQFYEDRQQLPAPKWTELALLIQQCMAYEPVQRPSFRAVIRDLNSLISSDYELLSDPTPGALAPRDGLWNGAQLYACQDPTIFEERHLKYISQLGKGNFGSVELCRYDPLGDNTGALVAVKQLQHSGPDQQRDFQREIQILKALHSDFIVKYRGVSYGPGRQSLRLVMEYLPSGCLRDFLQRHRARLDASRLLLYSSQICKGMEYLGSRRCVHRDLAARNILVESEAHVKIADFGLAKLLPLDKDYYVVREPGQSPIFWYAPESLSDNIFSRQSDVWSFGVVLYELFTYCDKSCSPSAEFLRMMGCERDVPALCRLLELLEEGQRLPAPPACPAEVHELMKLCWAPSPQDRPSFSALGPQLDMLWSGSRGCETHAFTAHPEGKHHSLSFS

JAK2 = JAK2 (Homo sapiens, UniProt O60674); conditions: cited from earlier work
Chain of JAK2 (O60674 whole entry): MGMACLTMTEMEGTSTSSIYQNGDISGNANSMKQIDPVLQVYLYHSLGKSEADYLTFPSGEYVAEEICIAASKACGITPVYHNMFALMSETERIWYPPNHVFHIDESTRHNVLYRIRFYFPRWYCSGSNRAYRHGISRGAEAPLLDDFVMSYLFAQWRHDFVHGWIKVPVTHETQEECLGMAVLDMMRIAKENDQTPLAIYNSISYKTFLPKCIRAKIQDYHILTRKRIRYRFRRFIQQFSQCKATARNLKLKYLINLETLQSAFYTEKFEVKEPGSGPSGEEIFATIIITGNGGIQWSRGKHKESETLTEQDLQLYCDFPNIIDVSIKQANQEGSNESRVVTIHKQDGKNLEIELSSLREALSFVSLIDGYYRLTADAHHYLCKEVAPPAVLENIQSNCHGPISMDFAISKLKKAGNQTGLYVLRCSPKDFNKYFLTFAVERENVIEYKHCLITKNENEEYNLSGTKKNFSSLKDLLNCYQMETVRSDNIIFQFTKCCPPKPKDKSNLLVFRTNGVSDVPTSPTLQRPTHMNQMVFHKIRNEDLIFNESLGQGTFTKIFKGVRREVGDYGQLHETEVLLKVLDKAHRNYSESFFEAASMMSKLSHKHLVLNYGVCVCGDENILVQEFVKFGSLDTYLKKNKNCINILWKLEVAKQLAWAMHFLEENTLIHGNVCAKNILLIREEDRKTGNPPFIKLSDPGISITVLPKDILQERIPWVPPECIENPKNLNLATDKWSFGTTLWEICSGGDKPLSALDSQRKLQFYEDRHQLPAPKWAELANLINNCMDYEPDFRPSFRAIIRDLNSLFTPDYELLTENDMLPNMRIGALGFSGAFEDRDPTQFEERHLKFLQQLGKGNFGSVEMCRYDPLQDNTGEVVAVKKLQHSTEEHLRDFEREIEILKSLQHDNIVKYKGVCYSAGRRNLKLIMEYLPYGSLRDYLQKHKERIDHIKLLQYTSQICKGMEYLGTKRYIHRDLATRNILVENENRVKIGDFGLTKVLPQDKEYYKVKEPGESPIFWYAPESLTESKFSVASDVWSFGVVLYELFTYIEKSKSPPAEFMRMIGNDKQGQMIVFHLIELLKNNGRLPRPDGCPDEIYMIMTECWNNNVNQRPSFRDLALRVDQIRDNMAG

[3] = Dynamic moisture sorption (DMS) assessment; format: physicochemical
Method: Dynamic moisture sorption (DMS) measurement was performed using a VTI atmospheric microbalance, SGA-100 system (VTI Corp., Hialeah, Fla. 33016). A weighed sample was used and the humidity was at the lowest possible value (close to 0% RH) at the start of the analysis. The DMS analysis consisted of an initial drying step (˜0% RH) for 16 hours, followed by two cycles of sorption and desorption with a scan rate of 5% RH/step over the humidity range of 5% RH to 90% RH. The DMS run was performed isothermally at 25° C.

[4] = Solubility of the crystalline form in water and Simulated Lung Fluid; format: physicochemical
Method: The solubility of the crystalline form was assessed in water and Simulated Lung Fluid (SLF). The crystalline form was dispersed in liquid media in multiple vials to form slurries, with each vial containing about 7.5 mg of the crystalline form and 0.5 mL of the liquid media. The slurries were agitated in a thermo-shaker at 25° C. and samples were collected from different vials at approximately 5, 15, 30, 60 minutes, and 24 hours. At each of the timepoints, the slurries were centrifuged for 10 minutes. The supernatant was collected and centrifuged for another 10 minutes. Solubility at each timepoint is determined by analyzing the compound concentration in the supernatant using HPLC. SLF composition: 0.4% NaCl, 0.02% DPPC in 50 mM phosphate buffer pH 6.9

[5] = Thermogravimetric analysis (TGA); format: physicochemical; conditions: heating rate of 10° C., ambient to 360° C., nitrogen
Method: Thermogravimetric analysis (TGA) measurements were performed using a TA Instruments Model Q-50 module equipped with high resolution capability. Data were collected using TA Instruments Thermal Analyst controller and analyzed using TA Instruments Universal Analysis software. A weighed sample was placed onto a platinum pan and scanned with a heating rate of 10° C. from ambient temperature to 360° C. The balance and furnace chambers were purged with nitrogen flow during use. The crystalline form decomposes at an onset temperature of about 285° C.

[6] = Stability study, storage at 40° C. and 75% relative humidity, analysed by HPLC; format: physicochemical
Method: Samples of the crystalline form were stored in glass vials with screw caps at 40° C. and 75% relative humidity (RH). At specific intervals, the contents of a representative sample were removed and analyzed by HPLC for assay and chemical purity as shown in Table 3.

[7] = T = 3 Months, 40° C. and 75% RH
[8] = T = 6 Months, 40° C. and 75% RH

Chain of JAK1 (P23458 whole entry): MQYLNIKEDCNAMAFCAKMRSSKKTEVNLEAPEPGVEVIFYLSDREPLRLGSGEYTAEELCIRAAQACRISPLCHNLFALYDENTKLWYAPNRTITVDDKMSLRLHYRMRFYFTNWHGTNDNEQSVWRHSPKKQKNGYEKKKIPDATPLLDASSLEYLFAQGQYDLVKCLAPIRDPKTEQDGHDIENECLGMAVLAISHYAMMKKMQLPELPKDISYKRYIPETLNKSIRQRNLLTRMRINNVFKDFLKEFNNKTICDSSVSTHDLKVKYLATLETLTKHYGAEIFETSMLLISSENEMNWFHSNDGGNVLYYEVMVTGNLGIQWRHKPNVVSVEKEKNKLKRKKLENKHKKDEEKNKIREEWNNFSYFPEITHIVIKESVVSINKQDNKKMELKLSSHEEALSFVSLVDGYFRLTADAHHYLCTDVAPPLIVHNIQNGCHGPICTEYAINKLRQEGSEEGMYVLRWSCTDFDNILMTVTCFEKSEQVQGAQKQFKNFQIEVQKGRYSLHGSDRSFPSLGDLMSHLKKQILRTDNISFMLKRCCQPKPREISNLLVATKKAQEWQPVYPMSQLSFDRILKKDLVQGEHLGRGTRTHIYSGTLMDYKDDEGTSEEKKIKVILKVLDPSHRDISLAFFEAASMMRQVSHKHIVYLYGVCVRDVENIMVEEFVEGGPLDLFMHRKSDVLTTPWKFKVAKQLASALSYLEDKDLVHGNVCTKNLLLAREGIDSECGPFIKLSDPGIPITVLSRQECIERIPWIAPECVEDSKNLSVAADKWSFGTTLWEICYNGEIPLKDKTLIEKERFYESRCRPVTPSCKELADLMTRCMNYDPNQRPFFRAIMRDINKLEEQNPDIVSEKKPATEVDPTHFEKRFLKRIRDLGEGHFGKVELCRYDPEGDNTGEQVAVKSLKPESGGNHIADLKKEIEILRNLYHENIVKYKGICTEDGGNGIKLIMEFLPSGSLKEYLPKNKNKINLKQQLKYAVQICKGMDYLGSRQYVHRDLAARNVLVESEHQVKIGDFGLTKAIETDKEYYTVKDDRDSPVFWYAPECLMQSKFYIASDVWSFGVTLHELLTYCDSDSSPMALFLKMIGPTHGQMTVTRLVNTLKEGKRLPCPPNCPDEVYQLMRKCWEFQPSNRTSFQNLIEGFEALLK

Structure (SMILES): CCc1cc(O)c(F)cc1-c1ccc2c(-c3nc4c([nH]3)CCN(C3CCN(C)CC3)C4)n[nH]c2c1 [compound 1, 5-ethyl-2-fluoro-4-(3-(5-(1-methylpiperidin-4-yl)-4,5,6,7-tetrahydro-1H-imidazo[4,5-c]pyridin-2-yl)-1H-indazol-6-yl)phenol]
- inhibition of JAK1 (in words) (JAK1): potent inhibitor
- inhibition of TYK2 (in words) (TYK2): potent inhibitor
- lung retention (in words) [1]: significant lung retention
- inhibition of pro-inflammatory and pro-fibrotic cytokines (in words) [2]: potent inhibition
- inhibition of JAK3 (in words) (JAK3): potent inhibitor
- inhibition of JAK2 (in words) (JAK2): potent inhibitor

- change in form after two cycles of moisture sorption and desorption ([3]; 5% RH to 90% RH, 25° C.): no change in form
- total moisture uptake ([3]; relative humidity between about 5% and about 90%, room temperature (25° C.)): about 0.8%
- solubility at 30 min ([4]; Simulated Lung Fluid (SLF), fassgf or other biorelevant, thermodynamic from solid, Simulated Lung Fluid pH 6.9, 25° C., 30 minutes): 210 µg/mL
- solubility at 24 h ([4]; Simulated Lung Fluid (SLF), pH 6.9, fassgf or other biorelevant, thermodynamic from solid, Simulated Lung Fluid, 25° C., read-out: solubility in SLF): 70 µg/mL
- solubility in simulated lung fluid (in words) ([4]; simulated lung fluid): good solubility
- solubility at 60 min ([4]; thermodynamic from solid, water, 25° C., 60 minutes): 8900 µg/mL
- solubility at 24 h ([4]; thermodynamic from solid, water, 25° C., read-out: solubility in water): 3200 µg/mL
- solubility in water (in words) ([4]; water): good solubility
- decomposition onset temperature (TGA) [5]: about 285 °C
- Assay % w/w ([6]; T = 0): 85.0 % w/w
- HPLC purity % a/a ([6]; T = 0): 98.7 % a/a
- Assay % w/w ([6]; T = 1 Week, 40° C. and 75% RH): 86.8 % w/w
- HPLC purity % a/a ([6]; T = 1 Week, 40° C. and 75% RH): 98.7 % a/a
- Assay % w/w ([6]; T = 2 Weeks, 40° C. and 75% RH): 85.1 % w/w
- HPLC purity % a/a ([6]; T = 2 Weeks, 40° C. and 75% RH): 98.7 % a/a
- Assay % w/w [6, 7]: 84.5 % w/w
- HPLC purity % a/a [6, 7]: 98.7 % a/a
- Assay % w/w ([6]; T = 4 Weeks, 40° C. and 75% RH): 86.9 % w/w
- HPLC purity % a/a ([6]; T = 4 Weeks, 40° C. and 75% RH): 98.7 % a/a
- Assay % w/w [6, 8]: 85.1 % w/w
- HPLC purity % a/a [6, 8]: 98.5 % a/a
- change in purity or assay ([6]; after 6 months at 40° C. and 75% RH): no significant change
Structure (SMILES): CCc1cc(O)c(F)cc1-c1ccc2c(-c3nc4c([nH]3)CCN(C3CCN(C)CC3)C4)n[nH]c2c1 [crystalline form, 5-ethyl-2-fluoro-4-(3-(5-(1-methylpiperidin-4-yl)-4,5,6,7-tetrahydro-1H-imidazo[4,5-c]pyridin-2-yl)-1H-indazol-6-yl)phenol, 2HCl Crystalline Form]
